{"source": "patent US20160220567A1", "about": "“COMPOSITION FOR TREATING OR PREVENTING BONE DISEASES, COMPRISING HALOFUGINONE AS ACTIVE INGREDIENT” (THE CATHOLIC UNIVERSITY OF KOREA INDUSTRY-ACADEMIC …, priority 2013, published 2016)", "key": {"ERK of Th17 cells": {"tested_on": "ERK of Th17 cells", "assay": "pERK expression in Th17 cells by western blotting", "type": "cell-based, mouse", "settings": "Th17 cells stimulated with halofuginone, FIG. 3C", "description": "To examine whether halofuginone activates the ERK of Th17 cells, western blotting was performed for pERK in the cells under the condition of Example <2-1>. To this end, the Th17 cells were lysed in a lysis buffer [20 mM Tris-HCl (pH 7.5), 150 mM NaCl, 1% Triton X-100, 1 mM EDTA, 1 mM EGTA, 1 mM phenylmethylsulfonyl fluoride, 10 mM β-glycerophosphate, 1 mM NaF, 1 mM Na3VO4, and 19 Protease Inhibitow Cocktail™ (Roche Molecular Biochemicals, Indianapolis, Ind., USA)]. From the lysate, an equal amount of the protein (about 20 μg) was separated by sodium dodecyl sulfate-polyacrylamide gel electrophoresis and then transferred to a nitrocellulose membrane. Then, the blots were probed with NFATc1 and phospho-Smad2/3 (all from Santa Cruz Biotechnology), Stat3, Stat5, ERK, phospho-Stat3, phospho-stat5, and phospho-ERK (all from Cell Signaling Technology), and β-actin (Sigma) antibodies, and confirmed by ECL (Amersham, Del., USA)."}, "[1]": {"tested_on": "Th17- and Treg cells in splenocytes", "assay": "Th17 and Treg cells, pSTAT3 and pSTAT5 in splenocytes of CIA mice by immunostaining and confocal microscope", "type": "in vivo, mouse", "description": "(§1) For the construction of a mouse model with collagen-induced arthritis (hereinafter, referred to as “CIA”), a 6-week old male DBA/1J mouse was subjected to primary immunization by intradermal injection after mixing the bovine type II collagen (hereinafter, referred to as “CII”) and complete Freud's adjuvant (CFA) in an amount of 100 μL, respectively. After a week thereafter, halofuginone was injected intraperitoneally at 3 day intervals at a concentration of 100 μg/kg and 500 μg/kg, respectively (9 weeks).\nTo examine the effect of halofuginone treatment in an animal model on Th17 and Treg factors, the measurement was performed using a confocal microscope after the immunostaining. Specifically, the spleens of the mice in the experimental group and control group in Examples were collected and embedded with an OCT compound, and the tissues rapidly cooled using liquid nitrogen were sliced into a thickness of 7 μm using a cryo microtome, and attached to slides. The sliced sections attached to the slides were fixed with acetone, and non-specific binding was blocked by reacting with 10% normal goat serum for 30 minutes. The first antibodies, i.e., FITC-labeled anti-Foxp3 Ab, PElabeled anti-IL-17 Ab APC-labeled anti-CD4 Ab, Allophycocyanin-labeled anti-CD25 Ab (Biolegend), biotinylated anti-CD4 Ab (BD Biosciences, San Jose, Calif., USA), were diluted in PBS (pH 7.5) at a 1:100 ratio and reacted at 4° C. overnight. On the next day, the resultant was washed with PBS and reacted with streptavidin cy-3 at room temperature for 2 hours. The stained tissues were analyzed using a confocal microscope (LSM 510 Meta. Zeiss, Gottingen, Germany), and the number of IL-17+ cells and Foxp3+ cells were scored under a microscopic observation, and the results are shown in graphs. Meanwhile, pSTAT3 and pSTAT5 were immunostained in the same manner as described above and the measurement was performed using a confocal microscope, and in particular, PE-conjugated anti-phospho-Stat3 (Y705 and S727; 1:50), and Alexa Fluor 488-conjugated anti-phospho-Stat5 (Y694; 1:100) (all from BD Biosciences) antibodies were used."}, "[2]": {"tested_on": "Th17, Th1 and Th2 cells from splenocytes", "assay": "Differentiation of Th17-, Th1-, and Th2 cells from mouse splenocytes by halofuginone treatment", "type": "cell-based", "description": "(§2) Splenocytes were obtained from mice, that is, the spleens removed from the mice and the spleen tissues were thinly ground using a tearing slide and the red blood cells (RBC) in the splenocytes were removed with the RBC lysis solution. Then, PBS buffer solution was added thereto, and the mixture was centrifuged, and washed to obtain splenocytes. Then, the singe cells (1 ? 10^6) isolated from the spleens were aliquoted into a 24-well plate coated with anti-CD3 antibody (1 μg/mL) were treated under the condition of capable of stimulating Th17 cells (anti-CD28 antibody (1 μg/mL), TGF-β (2 ng/ mL), IL-6 (20 ng/mL), anti-IL-4 (10 μg/mL), and anti-IFN-γ (10 μg/mL); the condition of capable of stimulating Th1 cells (anti-CD28 antibody (1 μg/mL), IL-12 (10 ng/mL), and anti-IL-4 (10 μg/mL)); or the condition of capable of stimulating Th2 cells (anti-CD28 antibody (1 μg/mL), IL-4 (10 ng/mL), and anti-IFN-γ (10 μg/mL)); and the cells were cultured for 3 days, and in particular, cultured after treating the cells with halofuginone at respective concentration and cultured. Specifically, DMSO treatment was used for the control group."}, "IL-17 and Foxp3 genes": {"tested_on": "IL-17 and Foxp3 genes", "assay": "Expression of IL-17 and Foxp3 genes in splenocytes and draining lymph nodes by RT-PCR", "type": "in vivo, mouse", "settings": "mRNA, splenocytes and draining lymph nodes of CIA mice, FIG. 2C", "description": "as §1\nTo examine the effect of halofuginone treatment in an animal model, the RNA in the splenocytes and draining lymph nodes were extracted using the Trizol reagent, and the expression of IL-17and Foxp3 genes was confirmed by RT-PCR.\nThe real-time PCR was performed using the LightCycler 2.0 System Instrument and the reaction compounds were prepared by mixing 1 μL of each cDNA, 10 μL of premix Ex Taq as an enzyme for the initiation, and each primer pair to a final volume of 20 μL using distilled water. […] The values of cycle threshold (Ct) were analyzed and the amount of mRNA expression for each target was indicated in terms of the amount of beta-actin mRNA expression and the relative quantity. […]"}, "Th17 cells": {"tested_on": "Th17 cells", "assay": "mRNA expression of IL-17, CCR6, SOCS3 and Foxp3 in Th17 cells by real-time PCR", "type": "cell-based, mouse", "settings": "FIG. 3B", "description": "The real-time PCR was performed using the LightCycler 2.0 System Instrument and the reaction compounds were prepared by mixing 1 μL of each cDNA, 10 μL of premix Ex Taq as an enzyme for the initiation, and each primer pair to a final volume of 20 μL using distilled water. The reaction conditions were: reacted at 95° C. for 10 minutes, followed by a total of 50 cycles consisting of denaturation at 95° C. for 10 seconds, annealing at 60° C. for 5 seconds, and extension at 72° C. for 10 seconds. The values of cycle threshold (Ct) were analyzed and the amount of mRNA expression for each target was indicated in terms of the amount of beta-actin mRNA expression and the relative quantity. The primers used are shown below.\nas §2\nThe expression of IL-17, CCR6, SOCS3, and Foxp3 in the cells under the condition of Example <2-2> was analyzed by real-time PCR as described in Example <1-6>. The primers used are shown below."}, "[3]": {"settings": "CD4+ cells of splenocytes of CIA mice, immunostaining"}, "[4]": {"settings": "splenocytes of CIA mice injected with halofuginone, FIG. 2A"}, "[5]": {"settings": "condition of differentiating Th17 cells, 3 days, vs DMSO, FIG. 3A"}}, "data": [{"compound": "O=C(C[C@H]1NCCC[C@@H]1O)Cn1cnc2cc(Br)c(Cl)cc2c1=O", "note": "(racemic) [halofuginone]", "values": [{"measurement": "expression of pERK", "setting": "ERK of Th17 cells", "result": "increased"}, {"measurement": "expression of pSTAT3", "setting": "[1]; [3]", "result": "decreased"}, {"measurement": "expression of pSTAT5", "setting": "[1]; [3]", "result": "increased"}, {"measurement": "number of Th17 cells", "setting": "[1]; [4]", "result": "decreased"}, {"measurement": "number of Treg cells", "setting": "[1]; [4]", "result": "increased"}, {"measurement": "Th17 cells", "setting": "[2]; [5]", "result": "inhibited"}, {"measurement": "Treg cells", "setting": "[2]; [5]", "result": "increased"}, {"measurement": "production of IL-4", "setting": "[2]; conditions of differentiating Th1 cells, IFN-gamma, and Th2 cells", "result": "did not affect"}, {"measurement": "expression of Foxp3", "setting": "IL-17 and Foxp3 genes", "result": "increased"}, {"measurement": "expression of IL-17", "setting": "IL-17 and Foxp3 genes", "result": "decreased"}, {"measurement": "expression of CCR6", "setting": "Th17 cells", "result": "inhibits"}, {"measurement": "expression of Foxp3", "setting": "Th17 cells", "result": "increasing"}, {"measurement": "expression of IL-17", "setting": "Th17 cells", "result": "inhibits"}, {"measurement": "expression of SOCS", "setting": "Th17 cells", "result": "increasing"}]}]}
